Experimental data: publication PMC6263338, “Synthesis of Some Phenylpropanoid Glycosides (PPGs) and Their Acetylcholinesterase/Xanthine Oxidase Inhibitory Activities” (Molecules, 2011)
“Also recorded” adds a separate entry of the source. Like-named read-outs stand apart in the source and are kept apart here.

Columns and labels:
AChE (from drosophila) = biological target: T1, AChE (from drosophila) (Drosophila melanogaster, UniProt P07140); test: In vitro AChE inhibitory activity (Acetylcholinesterase Detection Kit); assay type: biochemical; conditions: for inhibition at 1500 µg/mL: read-out: AChE inhibitory activitiy % inhibition (1.5 mg/mL); for inhibitory activities toward cholinesterase (in words): summary of Table 1
T1 construct: purchased Jing Peng Bio-Pesticide Co., Ltd. Shandong, P. R. China
Method: (§1) In vitro inhibitory activity test of these glycosides against AChE and XOD was studied by using Acetylcholinesterase Detection Kit and Xanthine Oxidase Detection Kit.
Assay of the in vitro AChE/XOD inhibitory activity: The tests of in vitro inhibitory activity of these PPGs against AChE (from drosophila, Jing Peng Bio-Pesticide Co., Ltd. Shandong, P. R. China) and Xanthine Oxidase (from buttermilk, Sigma Co., Ltd. X4875) were carried out by using AChE (or XOD) Detection Kits (Jian Cheng Bioengineering Institute, Nan Jin, Jiangsu, P. R. China), following the manufacturer’s protocol. All the compounds were dissolved in 1% DMSO. […] The results were read on a microplate reader at the wavelength of 450 nm/530 nm. All the assays were performed in triplicate with three independent experiments. The IC50 values were calculated using XLfit software.

[1] = biological target: T2, Xanthine Oxidase (from buttermilk) (Bos taurus, UniProt P80457); test: In vitro XOD inhibitory activity (Xanthine Oxidase Detection Kit); assay type: biochemical; conditions: for inhibition at 1500 µg/mL: read-out: XOD inhibitory activity % inhibition (1.5 mg/mL); for XOD inhibitory activity % inhibition (1.5 mg/mL): compounds in 1% DMSO, mean ± SD, triplicate; for XOD inhibitory activity (in words): summary of Table 1
T2 construct: Xanthine Oxidase (from buttermilk, Sigma Co., Ltd. X4875); purchased Sigma Co., Ltd. X4875; host or cells: buttermilk
Method: as §1
Assay of the in vitro AChE/XOD inhibitory activity: The tests of in vitro inhibitory activity of these PPGs against AChE (from drosophila, Jing Peng Bio-Pesticide Co., Ltd. Shandong, P. R. China) and Xanthine Oxidase (from buttermilk, Sigma Co., Ltd. X4875) were carried out by using AChE (or XOD) Detection Kits (Jian Cheng Bioengineering Institute, Nan Jin, Jiangsu, P. R. China), following the manufacturer’s protocol. All the compounds were dissolved in 1% DMSO. […] If an inhibition of more than 30% was observed, the compound was classified as active. The active compounds were consequently tested at seven concentrations. The results were read on a microplate reader at the wavelength of 450 nm/530 nm. All the assays were performed in triplicate with three independent experiments. The IC50 values were calculated using XLfit software.

[2] = 1.5 mg/mL, compounds in 1% DMSO, mean ± SD, triplicate
[3] = seven concentrations, mean ± SD of triplicate independent experiments, – = not active
[4] = seven concentrations, mean ± SD of triplicate independent experiments, – = not active, read-out: AChE inhibitory activitiy IC50
[5] = read-out: AChE inhibitory activitiy IC50, seven concentrations, mean ± SD of triplicate independent experiments, – = not active
[6] = read-out: XOD inhibitory activity IC50, seven concentrations, mean ± SD of triplicate independent experiments, – = not active

Molecule | inhibition at 1500 µg/mL (AChE (from drosophila); [2]) | inhibition at 1500 µg/mL [1] | XOD inhibitory activity IC50 (μM) [1, 3] | IC50 (AChE (from drosophila); [4]) | IC50 (AChE (from drosophila); [5]) | IC50 [1, 6] | also measured
COc1cc(C=CCO[C@@H]2O[C@H](CO)[C@@H](O)[C@H](O)[C@H]2O)cc(OC)c1 [Compound 10c, 3,5-Dimethoxycinnamyl β-D-glucopyranoside] | 23 ± 0.85% | 21 ± 1.21% | – (not active (less than 30% inhibition at 1.5 mg/mL)) | – | – | – | AChE inhibitory activitiy IC50 (μM) (AChE (from drosophila); [3]): – (not active (less than 30% inhibition at 1.5 mg/mL))
3-Bromo-4-ethoxy-5-methoxycinnamylcinnamyl β-D-glucopyranoside [Compound 10n] | – | – | – | 87.3 ± 2.1 µM | – | – | AChE inhibitory activitiy % inhibition (1.5 mg/mL) (AChE (from drosophila); [2]): 36 ± 3.55%; XOD inhibitory activity % inhibition (1.5 mg/mL) [1]: 28 ± 1.74%; IC50 ([1]; seven concentrations, mean ± SD of triplicate independent experiments, – = not active, read-out: XOD inhibitory activity IC50): 97.3 ± 0.8 µM
OC[C@H]1O[C@@H](OCC=Cc2ccc(Br)cc2)[C@H](O)[C@@H](O)[C@@H]1O [Compound 10l, 4-Bromocinnamyl β-D-glucopyranoside] | 57 ± 1.22% | 55 ± 3.67% | – | – | 22.4 ± 0.6 µM | 19.6 ± 1.5 µM | inhibitory activities toward cholinesterase (in words) (AChE (from drosophila)): moderate inhibitory activities; XOD inhibitory activity (in words) [1]: have XOD inhibitory activity
COc1ccc(C=CCO[C@@H]2O[C@H](CO)[C@@H](O)[C@H](O)[C@H]2O)cc1O [Compound 16d, 3-Hydroxy-4-methoxycinnamyl β-D-glucopyranoside] | 66 ± 3.45% | 56 ± 2.34% | – | – | 10.3 ± 2 µM | 16.5 ± 1.1 µM | XOD inhibitory activity (in words) [1]: have XOD inhibitory activity
O[C@@H]1[C@@H](O)[C@H](OC/C=C/c2ccccc2)O[C@H](CO[C@@H]2OC[C@H](O)[C@H](O)[C@H]2O)[C@H]1O [Compound 20, Rosavin] | 85 ± 0.21% | 73 ± 0.02% | – | 1.72 ± 0.1 µM | – | – | IC50 [1]: 5.55 µM
COc1cccc(C=CCO[C@@H]2O[C@H](CO)[C@@H](O)[C@H](O)[C@H]2O)c1OC [Compound 10e, 2,3-Dimethoxycinnamyl β-D-glucopyranoside] | 34 ± 4.36% | 22 ± 0.85% | – (not active (less than 30% inhibition at 1.5 mg/mL)) | – | 71.2 ± 2.8 µM | – | –
COc1ccc(C=CCO[C@@H]2O[C@H](CO)[C@@H](O)[C@H](O)[C@H]2O)cc1 [Compound 10a, 4-Methoxycinnamyl β-D-glucopyranoside] | 15 ± 3.27% | 10 ± 2.22% | – (not active (less than 30% inhibition at 1.5 mg/mL)) | – | – | – | AChE inhibitory activitiy IC50 (μM) (AChE (from drosophila); [3]): – (not active (less than 30% inhibition at 1.5 mg/mL))
OC[C@H]1O[C@@H](OCC=Cc2ccc(O)cc2)[C@H](O)[C@@H](O)[C@@H]1O [Compound 16a, 4-Hydroxycinnamyl β-D-glucopyranoside] | 34 ± 2.67% | 32 ± 1.63% | – | 75.2 ± 1.2 µM | – | – | IC50 [1]: 79.3 ± 0.7 µM
O[C@@H]1[C@@H](O)[C@H](OCC=Cc2ccccc2)O[C@H](CO[C@@H]2OC[C@@H](O)[C@H](O)[C@H]2O)[C@H]1O [Compound 21, Cinnamyl 6-O-(β-D-xylopyranosyl)-β-D-glucopyranoside] | 82 ± 0.11% | 74 ± 0.12% | – | – | 3.71 ± 0.1 µM | 4.56 ± 0.1 µM | –
COc1cc(C=CCO[C@@H]2O[C@H](CO)[C@@H](O)[C@H](O)[C@H]2O)ccc1O [Compound 16c, 4-Hydroxy-3-methoxycinnamyl β-D-glucopyranoside] | – | 23 ± 0.93% | – (not active (less than 30% inhibition at 1.5 mg/mL)) | – | 25.7 ± 0.7 µM | – | inhibition at 1500 µg/mL (AChE (from drosophila)): 54 ± 2.34%
OC[C@H]1O[C@@H](OCC=Cc2ccccc2F)[C@H](O)[C@@H](O)[C@@H]1O [Compound 10i, 2-Fluorocinnamyl β-D-glucopyranoside] | 18 ± 2.11% | 24 ± 1.32% | – (not active (less than 30% inhibition at 1.5 mg/mL)) | – | – | – | AChE inhibitory activitiy IC50 (μM) (AChE (from drosophila); [3]): – (not active (less than 30% inhibition at 1.5 mg/mL))
OC[C@H]1O[C@@H](OCC=Cc2ccc(Cl)cc2)[C@H](O)[C@@H](O)[C@@H]1O [Compound 10j, 4-Chlorocinnamyl β-D-glucopyranoside] | 42 ± 3.23% | 50 ± 2.35% | – | – | 38.3 ± 1.4 µM | 24.3 ± 1.4 µM | XOD inhibitory activity (in words) [1]: have XOD inhibitory activity
C[C@@H]1O[C@@H](OC[C@H]2O[C@@H](OCC=Cc3ccccc3)[C@H](O)[C@@H](O)[C@@H]2O)[C@H](O)[C@H](O)[C@H]1O [Compound 23, Cinnamyl 6-O-(α-L-rhamnopyranosyl)-β-D-glucopyranoside] | 81 ± 0.05% | 60 ± 0.01% | – | 2.05 µM | – | 8.21 µM | –
COc1ccccc1C=CCO[C@@H]1O[C@H](CO)[C@@H](O)[C@H](O)[C@H]1O [Compound 10b, 2-Methoxycinnamyl β-D-glucopyranoside] | 62 ± 4.53% | 12 ± 3.12% | – (not active (less than 30% inhibition at 1.5 mg/mL)) | – | – | – | IC50 (AChE (from drosophila)): 15.5 ± 2.1 µM; inhibitory activities toward cholinesterase (in words) (AChE (from drosophila)): moderate inhibitory activities; also recorded: more potent than the corresponding unsubstituted compound 10m
4-Trifluoromethycinnamyl β-D-glucopyranoside [Compound 10f] | – | – | – (not active (less than 30% inhibition at 1.5 mg/mL)) | – | – | – | AChE inhibitory activitiy % inhibition (1.5 mg/mL) (AChE (from drosophila); [2]): 22 ± 2.44%; AChE inhibitory activitiy IC50 (μM) (AChE (from drosophila); [3]): – (not active (less than 30% inhibition at 1.5 mg/mL)); XOD inhibitory activity % inhibition (1.5 mg/mL) [1]: 5 ± 0.22%
OC[C@H]1O[C@@H](OCC=Cc2cccc(O)c2)[C@H](O)[C@@H](O)[C@@H]1O [Compound 16b, 3-Hydroxycinnamyl β-D-glucopyranoside] | 75 ± 2.12% | 41 ± 2.22% | – | – | 7.62 ± 1.1 µM | 29.6 ± 1.2 µM | XOD inhibitory activity (in words) [1]: have XOD inhibitory activity
COc1ccc(C=CCO[C@@H]2O[C@H](CO)[C@@H](O)[C@H](O)[C@H]2O)cc1OC [Compound 10d, 3,4-Dimethoxycinnamyl β-D-glucopyranoside] | 43 ± 1.35% | 35 ± 3.22% | – | 43.5 ± 0.6 µM | – | – | IC50 [1]: 73.5 ± 1.5 µM
COc1ccc(C=CCO[C@@H]2O[C@H](CO[C@@H]3OC[C@H](O)[C@H](O)[C@H]3O)[C@@H](O)[C@H](O)[C@H]2O)cc1 [Compound 22, 4-Methoxycinnamyl 6-O-(α-L-arabinopyranosyl)-β-D-glucopyranoside] | 72 ± 0.1% | 65 ± 0.1% | – | 4.23 ± 0.1 µM | – | 5.71 ± 0.1 µM | –
OC[C@H]1O[C@@H](OCC=Cc2ccc(F)c(F)c2)[C@H](O)[C@@H](O)[C@@H]1O [Compound 10k, 3,4-Difluorocinnamyl β-D-glucopyranoside] | 43 ± 2.31% | 37 ± 2.78% | – | 35.5 ± 1.1 µM | – | 55.4 ± 1.3 µM | –
OC[C@H]1O[C@@H](OCC=Cc2ccc3c(c2)OCO3)[C@H](O)[C@@H](O)[C@@H]1O [Compound 10g, 3,4-Methylenedioxycinnamyl β-D-glucopyranoside] | 15 ± 3.55% | 13 ± 1.43% | – (not active (less than 30% inhibition at 1.5 mg/mL)) | – | – | – | AChE inhibitory activitiy IC50 (μM) (AChE (from drosophila); [3]): – (not active (less than 30% inhibition at 1.5 mg/mL))
